This is an account of results in ChEMBL document CHEMBL1152309, “Isolation of 2-pyridone alkaloids from a New Zealand marine-derived penicillium species” (J Nat Prod, 2009).

Values after ≈ are worked out from the molar mass of the structure shown. A value given as a limit tells only on which side of the number the result lay.

For one assay, the system named is P388. The assay is described as follows: Cytotoxicity against mouse P388 cells. The class given is functional, cell-based.
Another assay concerns Bacillus subtilis. Description: Antibacterial activity against Bacillus subtilis at 30 ug/disk by disc-diffusion assay. Conditions: read-out: IZ. The class given is functional. (Agar diffusion results depend on both activity and mobility in agar.)
A further assay concerns Candida albicans. The assay is described as follows: Antifungal activity against Candida albicans at 30 ug/disk by disc-diffusion assay. Conditions: read-out: IZ. It counts as functional.

A word on the IC50: it is the concentration that inhibits the measured activity by half. Compound `C[C@@H]1C[C@H](C)[C@H]2c3c(cc[nH]c3=O)O[C@H](C)[C@@]2(C)C1` yielded a half-maximal inhibitory concentration (IC50) in the assay on P388 greater than 12.5 µg/mL.
Same read-out and setting: the same measure for `C[C@@H]1C[C@H](C)[C@@H](c2c(O)cc[nH]c2=O)[C@H](C)[C@@](C)(O)C1` [DEOXYAKANTHOMYCIN]: greater than 12.5 µg/mL.
Regarding `C[C@@H]1C[C@H](C)[C@H]2c3c(ccn(O)c3=O)O[C@H](C)[C@@]2(C)C1`, the zone of inhibition at 30 µg/disc in the assay on Bacillus subtilis is 8 mm; with Candida albicans it was 11 mm. Also, in the assay with P388, the IC50 is 1.8 µg/mL (≈ 6.49 µM).
